Drawing on patent publication US20090069300A1, “ISOQUINOLINYL AND ISOINDOLINYL DERIVATIVES AS HISTAMINE-3 ANTAGONISTS” (Wyeth, priority 2007, published 2009), this text covers melting point and Ki for 30 compounds.

Structures can show the parent of a compound that is named as a salt.

Tested on in the first series: not given
Assay: not given
Details: not given
As usually defined, the melting point is the temperature, or range, at which the solid turns liquid. As to `O=C(NCc1cccs1)c1ccc(-c2ccc3c(c2)CCN(CCN2CCCC2)C3=O)cc1` (as salt: hydrochloride) [Example 121, 4-[1-oxo-2-(2-pyrrolidin-1-ylethyl)-1,2,3,4-tetrahydroisoquinolin-6-yl]-N-(2-thienylmethyl)benzamide], the melting point lay within 211 to 213.5 °C.

The compound `O=C(c1ccc(-c2ccc3c(c2)CCN(CCN2CCCC2)C3)cc1)N1CCCC1` (as salt: hydrochloride) [Example 184, 6-[4-(pyrrolidin-1-ylcarbonyl)phenyl]-2-(2-pyrrolidin-1-ylethyl)-1,2,3,4-tetrahydroisoquinoline] gave a melting point of 241 to 242 °C.

The compound `C[C@@H]1CCCN1CCN1CCc2cc(C(=O)N3CCCC3)ccc2C1=O` (as salt: hydrochloride) [Example 151, 2-{2-[(2R)-2-methylpyrrolidin-1-yl]ethyl}-6-(pyrrolidin-1-ylcarbonyl)-3,4-dihydroisoquinolin-1(2H)-one] displayed a melting point of 166 to 167 °C.

In turn, `C[C@@H]1CCCN1CCN1CCc2cc(C(=O)NC3CCC3)ccc2C1=O` (as salt: hydrochloride) [Example 145, N-cyclobutyl-2-{2-[(2R)-2-methylpyrrolidin-1-yl]ethyl}-1-oxo-1,2,3,4-tetrahydroisoquinoline-6-carboxamide] registered a melting point of 214 to 215 °C.

For `O=C(c1ccc(-c2ccc3c(c2)CCN(CCN2CCCC2)C3=O)c(F)c1)N1CCCC1` (as salt: hydrochloride) [Example 138, 6-[2-fluoro-4-(pyrrolidin-1-ylcarbonyl)phenyl]-2-(2-pyrrolidin-1-ylethyl)-3,4-dihydroisoquinolin-1(2H)-one], the melting point lay within 225 to 226 °C.

`C[C@@H]1CCCN1CCN1CCc2cc(Oc3ccc(C#N)nc3)ccc2C1=O` (as salt: hydrochloride) [Example 51, 5-[(2-{2-[(2R)-2-methylpyrrolidin-1-yl]ethyl}-1-oxo-1,2,3,4-tetrahydroisoquinolin-6-yl)oxy]pyridine-2-carbonitrile] showed a melting point of 218 to 220 °C.

Compound `C[C@@H]1CCCN1CCN1CCc2cc(-c3ccc(C(=O)NC4CCCC4)cc3)ccc2C1=O` (as salt: hydrochloride) [Example 80, N-cyclopentyl-4-(2-{2-[(2R)-2-methylpyrrolidin-1-yl]ethyl}-1-oxo-1,2,3,4-tetrahydroisoquinolin-6-yl)benzamide] returned a melting point of 260 to 262 °C.

The compound `N#Cc1ccc(-c2ccc3c(c2)CCN(CCCN2CCCCC2)C3=O)cc1` (as salt: hydrochloride) [Example 45, 4-[1-oxo-2-(3-piperidin-1-ylpropyl)-1,2,3,4-tetrahydroisoquinolin-6-yl]benzonitrile hydrochloride] showed a melting point of 249 to 250 °C.

The compound `C[C@@H]1CCCN1CCN1CCc2cc(-c3ccc(C(=O)NCC4CC4)cc3)ccc2C1=O` (as salt: hydrochloride) [Example 73, N-(cyclopropylmethyl)-4-(2-{2-[(2R)-2-methylpyrrolidin-1-yl]ethyl}-1-oxo-1,2,3,4-tetrahydroisoquinolin-6-yl)benzamide] gave a melting point of 188 to 190 °C.

As to `C[C@@H]1CCCN1CCN1CCc2cc(Oc3ccc(C#N)cn3)ccc2C1=O` (as salt: hydrochloride) [Example 48, 6-[(2-{2-[(2R)-2-methylpyrrolidin-1-yl]ethyl}-1-oxo-1,2,3,4-tetrahydroisoquinolin-6-yl)oxy]nicotinonitrile], the melting point was 184 to 185 °C.

Compound `C[C@@H]1CCCN1CCN1CCc2ccc(-c3ccc(C(=O)N4CCCC4)cc3)cc2C1=O` (as salt: hydrochloride) [Example 86, 2-{2-[(2R)-2-methylpyrrolidin-1-yl]ethyl}-7-[4-(pyrrolidin-1-ylcarbonyl)phenyl]-3,4-dihydroisoquinolin-1(2H)-one] came in with a melting point of 214 to 215 °C.

`C[C@@H]1CCCN1CCN1CCc2cc(-c3ccc(C(=O)N4CCCC4)cc3)ccc2C1=O` (as salt: hydrochloride) [Example 66, 2-{2-[(2R)-2-methylpyrrolidin-1-yl]ethyl}-6-[4-(pyrrolidin-1-ylcarbonyl)phenyl]-3,4-dihydroisoquinolin-1(2H)-one]: the melting point was in the range of 243 to 244 °C.

In turn, `CCOCCNC(=O)c1ccc(-c2ccc3c(c2)CCN(CCN2CCCC2)C3=O)cc1` (as salt: hydrochloride) [Example 72, N-(2-ethoxyethyl)-4-[1-oxo-2-(2-pyrrolidin-1-ylethyl)-1,2,3,4-tetrahydroisoquinolin-6-yl]benzamide] yielded a melting point of 193 to 195 °C.

Take `CNC(=O)c1ccc(-c2ccc3c(c2)CCN(CCN2CCCC2)C3)cc1` (as salt: hydrochloride) [Example 181, N-methyl-4-[2-(2-pyrrolidin-1-ylethyl)-1,2,3,4-tetrahydroisoquinolin-6-yl]benzamide]: the melting point was in the range of 280 to 281 °C.

`O=C(NCCCl)c1ccc(-c2ccc3c(c2)CCN(CCN2CCCC2)C3=O)cc1` (as salt: hydrochloride) [Example 123, N-(2-chloroethyl)-4-[1-oxo-2-(2-pyrrolidin-1-ylethyl)-1,2,3,4-tetrahydroisoquinolin-6-yl]benzamide] had a melting point of 236 to 237 °C.

`CNC(=O)c1ccc(Oc2ccc3c(c2)CCN(CCN2CCCC2)C3=O)nc1` (as salt: hydrochloride) [Example 101, N-Methyl-6-(1-oxo-2-(2-(pyrrolidin-1-yl)ethyl)-1,2,3,4-tetrahydro-isoquinolin-6-yloxy)nicotinamide hydrochloride] showed a melting point of 228 to 230 °C.

`CC(C)NC(=O)c1ccc(-c2ccc3c(c2)CCN(CCN2CCCC2)C3=O)cc1` (as salt: hydrochloride) [Example 61, N-isopropyl-4-[1-oxo-2-(2-pyrrolidin-1-ylethyl)-1,2,3,4-tetrahydroisoquinolin-6-yl]benzamide]: the melting point is 257 to 259 °C.

`O=C1c2ccc(-c3cccc(OC(F)(F)F)c3)cc2CCN1CCN1CCCC1` (as salt: hydrochloride) [Example 13, 2-(2-pyrrolidin-1-ylethyl)-6-[3-(trifluoromethoxy)phenyl]-3,4-dihydroisoquinolin-1(2H)-one] had a melting point of 135 to 137 °C.

With `CCN(C)C(=O)c1ccc(-c2ccc3c(c2)CCN(CCN2CCCC2)C3=O)cc1` (as salt: hydrochloride) [Example 124, N-ethyl-N-methyl-4-[1-oxo-2-(2-pyrrolidin-1-ylethyl)-1,2,3,4-tetrahydroisoquinolin-6-yl]benzamide], the melting point was in the range of 200 to 201 °C.

The target of the next series is T1, Human Histamine H3 Receptor (Homo sapiens, UniProt Q9Y5N1).
T1 construct: expressed in transfected cells; host or cells: HEK293T (stably transfected; membranes prepared from the cells)
T1 sequence (Q9Y5N1 whole entry): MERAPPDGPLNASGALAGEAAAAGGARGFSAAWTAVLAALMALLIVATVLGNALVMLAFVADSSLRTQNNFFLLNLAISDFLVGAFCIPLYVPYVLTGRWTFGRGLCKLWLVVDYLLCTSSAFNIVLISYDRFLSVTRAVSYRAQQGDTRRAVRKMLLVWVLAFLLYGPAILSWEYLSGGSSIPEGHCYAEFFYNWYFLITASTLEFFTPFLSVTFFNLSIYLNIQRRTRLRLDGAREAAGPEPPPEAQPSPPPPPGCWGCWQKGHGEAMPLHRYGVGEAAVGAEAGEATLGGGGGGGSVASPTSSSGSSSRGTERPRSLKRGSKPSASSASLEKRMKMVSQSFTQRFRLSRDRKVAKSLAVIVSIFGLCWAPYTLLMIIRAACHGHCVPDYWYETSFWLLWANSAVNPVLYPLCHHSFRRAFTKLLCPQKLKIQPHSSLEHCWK
Put plainly: Methyl histamine binding in human histamine H3 receptor cell line. As to conditions: read-out: H3 Binding Ki. In a few lines:
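Radioligand binding on membranes (10 μg/well) from a human H3 receptor cell line, 1 nM radioligand, 1 h at 30° C. in 50 mM Tris pH 7.5. Nonspecific binding defined with 10 uM clobenpropit, followed by filtration and scintillation counting. IC50 from four-parameter fit, converted to Ki by Cheng-Prusoff.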
By Ki is commonly meant the equilibrium dissociation constant of an inhibitor or competing ligand from its target. With `C[C@@H]1CCCN1CCN1CCc2cc(-n3cnc4ccccc43)ccc2C1=O` [Example 154, (R)-6-(1H-benzo[d]imidazol-1-yl)-2-(2-(2-methylpyrrolidin-1-yl)ethyl)-3,4-dihydroisoquinolin-1(2H)-one hydrochloride], the inhibition constant Ki is less than 10 nM.

Turning to `COC[C@@H]1CCCN1C(=O)c1ccc(-c2ccc3c(c2)CCN(CCN2CCCC2)C3=O)cc1` [Example 128, 6-(4-{[(2S)-2-(methoxymethyl)pyrrolidin-1-yl]carbonyl}phenyl)-2-(2-pyrrolidin-1-ylethyl)-3,4-dihydroisoquinolin-1(2H)-one], the inhibition constant Ki is less than 10 nM.

`CN(C)C(=O)c1ccc(Oc2ccc3c(c2)CCN(CCN2CCCC2)C3=O)cc1` [Example 95, N,N-dimethyl-4-{[1-oxo-2-(2-pyrrolidin-1-ylethyl)-1,2,3,4-tetrahydroisoquinolin-6-yl]oxy}benzamide]: the Ki is 25.1 to 50 nM.

Consider `C[C@@H]1CCCN1CCN1CCc2cc(C(=O)N3CCCCCC3)ccc2C1=O` [Example 144, 6-(azepan-1-ylcarbonyl)-2-{2-[(2R)-2-methylpyrrolidin-1-yl]ethyl}-3,4-dihydroisoquinolin-1(2H)-one], for which the Ki is less than 10 nM.

`CCNC(=O)c1ccc(-c2ccc3c(c2)CCN(CCN2CCC[C@H]2C)C3=O)cc1` [Example 75, N-ethyl-4-(2-{2-[(2R)-2-methylpyrrolidin-1-yl]ethyl}-1-oxo-1,2,3,4-tetrahydroisoquinolin-6-yl)benzamide]: the Ki was less than 10 nM.

As for `CNC(=O)c1ccc(Oc2ccc3c(c2)CCN(CCN2CCCC2)C3=O)nc1` [Example 101, N-Methyl-6-(1-oxo-2-(2-(pyrrolidin-1-yl)ethyl)-1,2,3,4-tetrahydro-isoquinolin-6-yloxy)nicotinamide hydrochloride], the Ki lay within 25.1 to 50 nM.

Take `O=C1c2ccc(-c3ccccc3F)cc2CCN1CCN1CCCC1` [Example 12, 6-(2-fluorophenyl)-2-(2-pyrrolidin-1-ylethyl)-3,4-dihydroisoquinolin-1(2H)-one]: the Ki lay within 10.1 to 25 nM.

`O=C(NCCF)c1ccc(-c2ccc3c(c2)CCN(CCN2CCCC2)C3=O)cc1` [Example 68, N-(2-fluoroethyl)-4-[1-oxo-2-(2-pyrrolidin-1-ylethyl)-1,2,3,4-tetrahydroisoquinolin-6-yl]benzamide]: the Ki was less than 10 nM.

Take `CN(C)C(=O)c1cc(-c2ccc3c(c2)CCN(CCN2CCCC2)C3=O)ccc1F` [Example 132, 2-fluoro-N,N-dimethyl-5-[1-oxo-2-(2-pyrrolidin-1-ylethyl)-1,2,3,4-tetrahydroisoquinolin-6-yl]benzamide]: the Ki was less than 10 nM.

As for `O=C1c2ccc(-c3cccc(C(F)(F)F)c3)cc2CCN1CCN1CCCC1` [Example 20, 2-(2-pyrrolidin-1-ylethyl)-6-[3-(trifluoromethyl)phenyl]-3,4-dihydroisoquinolin-1(2H)-one], the inhibitory constant (Ki) was less than 10 nM.

With `C[C@@H]1CCCN1CCN1CCc2cc(C(=O)N3CCCC3)ccc2C1=O` [Example 151, 2-{2-[(2R)-2-methylpyrrolidin-1-yl]ethyl}-6-(pyrrolidin-1-ylcarbonyl)-3,4-dihydroisoquinolin-1(2H)-one], the Ki is less than 10 nM.
